From patent US3957790A, “N-(3,3-diphenylpropyl)-n'-aralkyl-substituted piperazines” (Tokyo Tanabe Company, Ltd., priority 1974, dated 1976)
Counter-ions that a name gives are not always drawn.

Tests used:
coronary blood flow = coronary blood flow increasing action, measured in rabbits by the Langendorff method; design: species or system rabbit
Source text: The above-mentioned prior known derivatives of piperazine, however, have defects in that they are either too weak in the coronary blood flow increasing action [ED50 (mg)-the dose which can increase the coronary blood flow by 50%] or too strong in toxicity to be put to practical use as remedies for humans. Indeed, only one compound, trimetazidine dihydrochloride, [1-(2,3,4-trimethoxybenzyl)piperazine dihydrochloride)], is now being manufactured as a remedy for humans.
(§1) To illustrate one of the pharmacological effects of these compounds comparative experiments were carried out on the coronary blood flow increasing action, which was measured in rabbits by the Langendorff method, and on acute toxicity using the said trimetazidine as control, with the results being shown in Table 1. The Langendorff method was carried out according to the method described in Folia Pharmacologica Japonica, vol. 56, p. 1387 (1960), and the acute toxicity was measured by injection into the peritoneal cavities of mice.

[1] = acute toxicity by injection into the peritoneal cavities of mice; settings: in vivo
Experimental: as §1

SMILES	ED50 (coronary blood flow increasing action; dose which can increase the coronary blood flow by 50%) (coronary blood flow) [mg]	LD50 ([1]; ip mouse) [mg/kg]	LD50 ([1]; mouse, ip) [mg/kg]
COc1ccc(CN2CCN(CCC(c3ccccc3)c3ccccc3)CC2)cc1OC.Cl.Cl [1-(3,3-diphenylpropyl)-4-(3,4-dimethoxybenzyl)piperazine dihydrochloride]	0.05	66	–
COc1cc(CN2CCN(CCC(c3ccccc3)c3ccccc3)CC2)cc(OC)c1OC.Cl.Cl [1-(3,3-diphenylpropyl)-4-(3,4,5-trimethoxybenzyl)piperazine dihydrochloride]	0.06	89	–
COc1ccc(CN2CCNCC2)c(OC)c1OC.Cl.Cl [Trimetazidine, 1-(2,3,4-trimethoxybenzyl)piperazine dihydrochloride, reference compound]	0.80	390	–
Cl.Cl.c1ccc(CN2CCN(CCC(c3ccccc3)c3ccccc3)CC2)cc1 [1-(3,3-diphenylpropyl)-4-benzylpiperazine dihydrochloride]	0.08	101	–
COc1ccc(CN2CCN(CCC(c3ccccc3)c3ccccc3)CC2)c(OC)c1OC [1-(3,3-diphenylpropyl)-4-(2,3,4-trimethoxybenzyl)-piperazinedihydrochloride]	0.02	–	100
